For 8 compounds, EC50 results are on record in patent US20150051176A1, “ARYL DERIVATIVES AS SPHINGOSINE-1 PHOSPHATE RECEPTORS MODULATORS” (Allergan, Inc., priority 2013, published 2015).

A word on the EC50: it is the concentration needed to bring the measured effect to its halfway point. Read a high EC50 as lower potency in that assay.

This assay concerns the target T1, human S1P1 receptor (Homo sapiens, UniProt P21453).
T1 construct: expressed in transfected cells; membranes used
Nature of the assay: GTP γ35S binding assay for S1P1 activity. Type of assay: biochemical. The following applies: membranes of cells stably expressing the S1P1 receptor, test concentrations 0.08 to 5,000 nM. How it is done: Compounds were synthesized and tested for S1P1 activity using the GTP γ^35S binding assay. These compounds may be assessed for their ability to activate or block activation of the human S1P1 receptor in cells stably expressing the S1P1 receptor.
GTP γ^35S binding was measured in the medium containing (mM) HEPES 25, pH 7.4, MgCl2 10, NaCl 100, dithiothreitol 0.5, digitonin 0.003%, 0.2 nM GTP γ^35S, and 5 μg membrane protein in a volume of 150 μl. Test compounds were included in the concentration range from 0.08 to 5,000 nM unless indicated otherwise. Membranes were incubated with 100 μM 5′-adenylylimidodiphosphate for 30 min, and subsequently with 10 μM GDP for 10 min on ice. Drug solutions and membrane were mixed, and then reactions were initiated by adding GTP γ^35S and continued for 30 min at 25° C. Reaction mixtures were filtered over Whatman GF/B filters under vacuum, and washed three times with 3 mL of ice-cold buffer (HEPES 25, pH7.4, MgCl2 10 and NaCl 100). Filters were dried and mixed with scintillant, and counted for ^35S activity using a β-counter. Agonist-induced GTP γ^35S binding was obtained by subtracting that in the absence of agonist. Binding data were analyzed using a non-linear regression method. In case of antagonist assay, the reaction mixture contained 10 nM […] in the presence of test antagonist at concentrations ranging from 0.08 to 5000 nM.
(In general: GTPγS resists hydrolysis and so accumulates on activated G proteins.)

T1 sequence (P21453 whole entry): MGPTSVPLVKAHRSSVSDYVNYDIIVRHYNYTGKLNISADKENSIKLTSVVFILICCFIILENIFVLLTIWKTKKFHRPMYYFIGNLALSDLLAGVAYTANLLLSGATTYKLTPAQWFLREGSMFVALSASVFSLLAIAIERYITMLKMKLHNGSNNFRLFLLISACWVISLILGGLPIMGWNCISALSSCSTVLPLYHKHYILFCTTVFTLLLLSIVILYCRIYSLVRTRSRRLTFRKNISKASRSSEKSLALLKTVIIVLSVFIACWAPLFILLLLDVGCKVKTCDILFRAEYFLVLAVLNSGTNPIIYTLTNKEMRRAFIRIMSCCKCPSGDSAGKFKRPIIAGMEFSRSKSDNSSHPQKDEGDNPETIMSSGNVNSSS

`Cc1ccc(CC(CCCCCCCCNCCCP(=O)(O)O)c2cccc(Cl)c2)cc1C` (centres unmarked) [(3-{[9-(3-Chlorophenyl)-10-(3,4-dimethylphenyl)decyl]amino}propyl)phosphonic acid]: the EC50 was determined as 293 nM.
In turn, `Cc1ccc(CC(CCCCCCCNCCCP(=O)(O)O)c2cccc(Cl)c2)cc1C` (centres unmarked) [3-{[8-(3-chlorophenyl)-9-(3,4-dimethylphenyl)nonyl]amino}propylphosphonic acid] registered an EC50 of 8.18 nM.
To `O=P(O)(O)CCCNCCCCCCCCC(Cc1ccccc1)c1cccc(Cl)c1` (centres unmarked) [(3-{[9-(3-Chlorophenyl)-10-phenyldecyl]amino}propyl)phosphonic acid] belongs 2.13 nM; to `Cc1ccc(CC(CCCCCCNCCCP(=O)(O)O)c2cccc(Cl)c2)cc1C` (centres unmarked) [3-{[7-(3-Chlorophenyl)-8-(3,4-dimethylphenyl)octyl]amino}propyl)phosphonic acid], 169 nM.
To `Cc1ccc(CC(CCCCCCCNCCC(=O)O)c2cccc(Cl)c2)cc1C` (centres unmarked) [3-{[8-(3-Chlorophenyl)-9-(3,4-dimethylphenyl)nonyl]amino}propanoic acid] belongs 487 nM; to `Cc1ccc(CC(CCCCCCCNCCC(=O)O)c2cc(F)cc(F)c2)cc1C` (centres unmarked) [3-{[8-(3,5-Difluorophenyl)-9-(3,4-dimethylphenyl)nonyl]amino}propanoic acid], 45.4 nM.
Compound `O=C(O)CCNCCCCCCCCC(Cc1ccccc1)c1cccc(Cl)c1` (centres unmarked) [3-{[9-(3-Chlorophenyl)-10-phenyldecyl]amino}propanoic acid] registered an EC50 of 21.8 nM.
To `Cc1ccc(CC(CCCCCCCNCCCP(=O)(O)O)c2cc(F)cc(F)c2)cc1C` (centres unmarked) [(3-{[8-(3,5-Difluorophenyl)-9-(3,4-dimethylphenyl)nonyl]amino}propyl)phosphonic acid] belongs 3.03 nM.
